# According to patent US20090176701A1, “Anti-microbial agents that interact with the complement system” (priority 2005, published 2009):
# What was measured:
# Type in all cases: cell-based
# E. coli O18:K1:H7 [1] = assay: Bacterial killing assay in serum or plasma (complement dependence)
# E. coli O18:K1:H7 [2] = assay: Bacterial killing assay without blood (growth medium); conditions: Table 4; no blood, peptide 3 μM; growth medium 6.2
# Experimental: Peptides #1, #3 and #4 were tested for their activity without blood on E. coli O18:K1:H7. The peptides were assayed at 3 μM. The same blood and TFPI controls were included as in Experiment I.
# E. coli O18:K1:H7 [3] = assay: Bacterial killing assay in 10% blood; design: CFU / CFU (Range) / CFU 1 hour / CFU 3 hours / CFU 5 hours / CFU 3 hour: scale not given here; conditions: for CFU 1 hour / CFU 3 hours: Table 5, 3000 CFU; for CFU 1 hour: blood 3.4; for CFU 3 hours: blood 4.2; for CFU 5 hours / CFU 3 hour: Table 6; for CFU (Range): Table 9
# Experimental: TFPI was incubated with α-thrombin, plasmin, elastase and cathepsin G in 10% blood and tested for bacterial killing activity against E. coli O18:K1:H7 as follows. Recombinant TFPI at 5 μM (unless indicated otherwise), was treated with plasmin (100 nM, lane 3) and α-thrombin (100 nM, lane 7; 1 μM, lane 8) (A), elastase (100 nM, lanes 3 and 4) (B), and cathepsin G (100 nM, lane 4; 1 μM, lanes 5, 6 and 7) (C) in a total volume of 180 μl. The reaction contained TFPI diluted in RPMI 1640 without phenol red, 25 mM Hepes, pH 7.5 (RPMI), 3000 CFU E. coli O18:K1:H7 in 40 μl PBS, and diluted enzyme in 20 μl RPMI. The volume was adjusted with RPMI. The samples were pre-incubated for 15-30 minutes before the addition of anti-coagulant-free fresh blood to a final volume of 200 μl. Controls were 10% blood in RPMI, TFPI at 1, 2 and 5 μM, and the enzymes alone at the respective concentrations. The samples were incubated for 4 hours at 37° C. with 5% CO2 in a humidified incubator and serial dilutions plated on Tryptase soy agar plates. The number of bacterial colonies was determined after overnight incubation at 37° C. All experimental conditions are run in duplicate. The data represent the average colony number.
# The 18 μl aliquots were diluted to 10 μM TFPI with 445 μl RPMI 1640 without phenolred, 25 mM Hepes, pH 7.5 (RPMI) and assayed at a final concentration of 5 μM in 200 μl reactions containing 3000 CFU E. coli in 40 μl PBS, 10% non-coagulated blood, and adjusted to the final volume with RPMI. Negative controls were 10% blood in RPMI, TFPI at 5 μM and cathepsin G at 400 nM. Anti-coagulant free blood was freshly drawn and added to the reaction as the last component. The samples were manipulated as described above.
# Peptides were designed to test for bacterial killing activity localized in the C-terminal domain of TFPI. Activity was measured against Gram negative (E coli O18:K1:H7. ATCC 700973) bacteria in the presence of 10% blood as described above. Controls were RPMI with 10% blood and 100 nM Tifacogin. The biological activity was determined from the reduction of bacterial colonies, as above.
# The three peptides #1, #2, & #3 were diluted in H2O to 10 fold their final assay concentration and incubated with bacteria for 4 hours, at the final concentrations of 3 μM, 300 nM 100 nM and 10 nM. E. coli was used at 3000 CFU/200 μl. Surviving colony numbers were determined as described in Example 1. […] Full-length TFPI has no activity against Gram negative bacteria in these assays at the concentrations tested.
# Time-dependency: Peptides were incubated with 3000 CFU E. coli O18:K1:H7 at the indicated final concentrations in the presence of 10% blood in three parallel 200 μl reactions as described above. RPMI with 10% blood was used as negative control. After incubation for 1, 3, or 5 hours samples were assayed for the effect on bacterial survival by plating serial dilutions onto agar plates. […] The effect of peptides on bacterial survival increases over the time-span studied.
# In these experiments, variable concentrations of E. coli O18:K1:H7 (3×10^3, 3×10^4 or 3×10^5 CFU/200 μl) were challenged with either 3 μM or 100 nM peptide #3 in RPMI/10% blood, and incubated for 3 or 5 hours before dilution and plating. Briefly, the bacteria were diluted to the indicated CFU in 40 μl PBS, the reactions assembled at a final volume of 200 μl as above, and incubated at 37° C. Serial dilutions of the reactions were plated and the colony number determined after overnight incubation. […] At 5 hours no effect on the high CFU culture was discernable, indicating a titration of the killing activity and the high CFU culture exceeding the capacity.
# [4] = test system: E. coli O7:K1(L):NM (ATCC 23503); assay: Bacterial killing assay with normal human serum, additional strain; conditions: Table 3, peptide 3 μM, NHS control 5.3
# Experimental: Peptide #3 was tested for activity at 3 μM on additional strains of E. coli using normal human serum as a control.
sequence,measurement,setting,value
"GFIQRISKGGLIKTKRKRKKQRVKIAY (homo sapiens) [Peptide #3, TFPI aas 242-268]",bacterial killing activity in CVF-treated serum,"E. coli O18:K1:H7 [1]; FIG. 8C, 1 U/ml CVF",still preserved
same,bacterial killing activity in CVF-treated serum,"E. coli O18:K1:H7 [1]; FIG. 8C, serum treated with 10 U/ml of CVF",lost
same,bacterial killing activity in serum,"E. coli O18:K1:H7 [1]; FIG. 8C, untreated serum or serum incubated 30 minutes at room temperature without CVF",active
same,bacterial killing activity in serum (rank),"E. coli O18:K1:H7 [1]; FIG. 8D, peptides serially diluted to 300 nM, and 30 nM in serum",strongest effect
same,bacterial killing activity in C4-deficient serum,"E. coli O18:K1:H7 [1]; FIG. 9, C4-deficient guinea pig serum",completely devoid of bacterial killing activity
same,bacterial killing activity in complement-depleted sera,"E. coli O18:K1:H7 [1]; FIG. 9, serum depleted for C1q, C3, C6, C2, C9, or deficient for C4",loss
same,bacterial killing activity after add-back of complement factor,"E. coli O18:K1:H7 [1]; FIGS. 9 C and D, purified C1 complex (2.34 μg) or factor C4 (6 μg) added back to the respective depleted/deficient serum",restored
same,CFU,"E. coli O18:K1:H7 [1]; Table 7, serum at 40 μl, digested rTFPI 5 μM, peptide #3 in parallel, control 4.2",1.2
same,CFU,"E. coli O18:K1:H7 [1]; Table 8, Serum + 5 mM MgC12, 10 mM EDTA, control 4.4",4.2
same,bacterial killing activity in chelated serum,E. coli O18:K1:H7 [1]; serum containing 10 mM EGTA and 5 mM MgCl2,no bacterial killing activity
same,CFU (Range),E. coli O18:K1:H7 [2],6.2 (6.1-6.2)
same,activity against O18ac:K1:H7 E. coli strain in blood,"E. coli O18:K1:H7 [3]; 10% blood, 4 hours, concentrations tested 10 nM to 3 μM, peptide #5 compared to peptide #3",active
same,CFU,"E. coli O18:K1:H7 [3]; Table 1, peptide 300 nM, 10% blood, 3000 CFU/200 μl, 4 hours, blood control 5.1",2.2
same,CFU,"E. coli O18:K1:H7 [3]; Table 2, peptide 10 nM, 10% blood, blood control 3.5",2.6
same,CFU,"E. coli O18:K1:H7 [3]; Table 2, peptide 100 nM, 10% blood, blood control 3.5",1.2
same,CFU 1 hour,"E. coli O18:K1:H7 [3]; 300 nM, 10% blood",3.3
same,CFU 3 hours,"E. coli O18:K1:H7 [3]; 300 nM, 10% blood",1.2
same,CFU 1 hour,"E. coli O18:K1:H7 [3]; 3 μM, 10% blood",3.2
same,CFU 3 hours,"E. coli O18:K1:H7 [3]; 3 μM, 10% blood",0.2
same,CFU 5 hours,"E. coli O18:K1:H7 [3]; 3000 bacteria, 100 nM, blood alone 3.4",1.2
same,CFU 3 hour,"E. coli O18:K1:H7 [3]; 3000 bacteria, 100 nM, blood alone 3.9",2.3
same,CFU 3 hour,"E. coli O18:K1:H7 [3]; 30,000 bacteria, 100 nM, blood alone 5.1",1.5
same,CFU 5 hours,"E. coli O18:K1:H7 [3]; 30,000 bacteria, 100 nM, blood alone 6.3",4.1
same,CFU 3 hour,"E. coli O18:K1:H7 [3]; 30,000 bacteria, 3 μM, blood alone 5.1",1.1
same,CFU 5 hours,"E. coli O18:K1:H7 [3]; 30,000 bacteria, 3 μM, blood alone 6.3",3.6
same,CFU 3 hour,"E. coli O18:K1:H7 [3]; 300,000 bacteria, 100 nM, blood alone 7.7",7.5
same,CFU 5 hours,"E. coli O18:K1:H7 [3]; 300,000 bacteria, 100 nM, blood alone 8.4",9.1
same,CFU 3 hour,"E. coli O18:K1:H7 [3]; 300,000 bacteria, 3 μM, blood alone 7.7",5.8
same,CFU 5 hours,"E. coli O18:K1:H7 [3]; 300,000 bacteria, 3 μM, blood alone 8.4",9.1
same,CFU,"E. coli O18:K1:H7 [3]; Table 7, blood at 20 μl, digested rTFPI 5 μM, peptide #3 in parallel, control 4.1",1.5
same,CFU (Range),"E. coli O18:K1:H7 [3]; peptide 3 μm, Heparin, 3 U/mL",5.5
same,CFU (Range),"E. coli O18:K1:H7 [3]; peptide 3 μm, LMW heparin, 0.3 U/mL",4.2 (4.1-4.2)
same,CFU (Range),"E. coli O18:K1:H7 [3]; peptide 3 μm, LMW heparin, 3 U/mL",5.2 (5.2-5.3)
same,bacterial killing activity with un-fractionated heparin,"E. coli O18:K1:H7 [3]; peptide 3 μm, un-fractionated heparin at 0.3 U/ml, data not shown",partial loss of bacterial killing activity
same,CFU,[4],2.9
